This is an account of results in patent US8304453B2, “Composition comprising at least one alkanolamide to inhibit migration of langerhans cells and uses therof” (Laboratoires Expanscience, priority 2001, dated 2012).

Structures are written as SMILES.

The subject of test [1] is dendritic cells. In words: Migration of dendritic cells to draining ganglions in mouse sensitised by FITC hapten (AK100 ± OX100, Example 5). The settings on record: for Migration inhibition in %: FITC. It is filed as in vivo. As for the experimental part: FITC (Fluoresceine isothiocyanate, Sigma, St. Louis, Mo.) was diluted extemporaneously in a mixture of acetone and dibutylphthalate (1:1).
Alkanolamide AK100 and OX100 (described above) were supplied by “Laboratoires Expanscience” and formulated alone or in association in an inert vehicle compatible with a topical application [AK100 (0.05%)±OX100 (0.05%)]. The different formulations were applied on the ears of mice twice per day for 4 consecutive days. Three hours after the last application, 1.5% of FITC was applied on both ears (one treated and the other not treated (Control)).
The effect of the two molecules was evaluated in vivo in the mouse. 1.5% FITC (2×5 μl) was applied on the skin of both ears. 24 h later, the mice were sacrificed and a cellular suspension was prepared from auricular and cervical ganglions (draining ganglions, hereinafter denoted GL) or from the poplital ganglions (non-draining ganglions, negative control). The tissues were cut and cells separated by filtration (100 μm filter, Falcon; Becton Dickinson) and then washed. The cells were then centrifuged for 10 minutes at 600×g (m×s^−2) on a metrizamide gradient (14.5% in RPMI 1640; 7.5% SVF). The interface cells were retrieved, rinsed and then marked with an anti-CDS86 PE-conjugated, biot-MHC CLII mAbs AC plus streptavidine-Cya (PharMingen) and analysed by flux cytometry. Only the FITC^+, PE^+ and Cya^+ cells are counted since they represent the population of cells that migrated from the skin to GLs following the application of hapten.

Test [2] relates to dendritic cells. In words: Migration of dendritic cells to draining ganglions in mouse sensitised by FITC hapten (AK100 ± LU105, Example 4). The test is classed as in vivo. An excerpt: FITC (Fluoresceine isothiocyanate, Sigma, St Louis, Mo.) was extemporaneously diluted in an acetone mix (dibutylphthalate (1:1)).
Alkanolamide AK100 and LU105 (LU 105 is an MMP inhibitor, corresponding to a peptide extract of white lupin marketed by the Expanscience Company under the brand name Actimp (193®) were supplied by “Laboratoires Expanscience” and formulated alone or association with each other in an inert vehicle compatible with a topical application (alkanolamide AK100 (0.1%)± LU105 (2%)). The different formulations were applied on the ears of mice twice per day for 4 consecutive days. 1.5% of FITC was applied on both ears (one treated and the other not treated (Control)) three hours after the last application.
The effect of the two molecules was evaluated in vivo in the mouse. 1.5% FITC (2×5 μl) was applied on the skin of both ears. […] The cells were then centrifuged for 10 minutes at 600×g (m×s^−2) on a metrizamide gradient (14.5% in RPMI 1640; 7.5% SVF) The interface cells were retrieved, rinsed and then marked with an anti-CDS86 PE-conjugated, biot-MHC CLII mAbs AC plus streptavidine-Cya (PharMingen) and analysed by flux cytometry. Only the FITC^+, PE^+ and Cya^+ cells are counted since they represent the population of cells that migrated from the skin to GLs following the application of hapten.

Test [3] concerns dendritic cells generated in vitro from CD34+ precursors derived from blood from the umbilical cord. In words: Migration of dendritic cells generated in vitro from CD34+ precursors of umbilical cord blood, activated by hapten BB. As to conditions: for Percentage of dendritic cells generated in vitro that migrated: BB + AK100 1 μM; for inhibition at 1 µM: Homo sapiens, Dendritic cell. The test is classed as cell-based, human. As for the experimental part:
Mononucleated cells were obtained from blood from the umbilical cord of healthy donors by centrifuging on Ficoll. The CD34+ cells were then purified by immunoselection using a specific antibody and magnetic balls (Miltenyi Biotech, Germany). The CD34+ cells were cultivated in the presence of GM-CSF (100 ng/ml), TNF-α (2.5 ng/ml) in RPMI to which 10% calf foetus serum was added for 5 days. TGF-β1, a factor that encourages differentiation of cells to the Langerhans cells […], was added on the 5th day of culture.
Cells were treated by hapten BB on the 7th day (Brandowski base, 1.17 μg/ml) for 24 h, and were then subjected to the migration test.
The results represent the percentage of cells that migrated in the presence of the different tested products. The percentage is calculated by taking the ratio of the number of cells recovered in the lower compartment of the migration chamber, to the number of cells subjected to migration. AK100 inhibits the migration of dendritic cells by 51 and 25% in experiments 1 and 2 respectively.

Test [4] deals with Langerhans cells freshly isolated from human skin. The experiment in a line: Migration of Langerhans cells freshly isolated from human skin, activated by DNSB (two-compartment Matrigel chamber). The test is classed as cell-based. As for the experimental part:
Epidermal cell suspensions were obtained by enzymatic treatment (0.05% trypsine for 18 h at +4° C.) of fragments of normal human skin taken from plastic surgery. The suspensions obtained contain an average of 2 to 4% of LC. Obtaining suspensions containing an average of 70% of LC is based on the principle of centrifuging on density gradient (Lymphoprep™) and elimination of keratinocytes.
The basic medium chosen for the entire study was PRMI 1640 (Gibco BRL, France). The AK100 molecule supplied by Pharmascience, with a concentration of 10^−2 M in solution in DMSO (Dimethyl Sulfoxide) was diluted in RPMI-1640 and tested at 1 μM.
The sensitising agent was DNSB (Sigma Aldrich), a soluble form of DNCB (dinitro-chloro-benzene) solubilised in RPMI-BSA and used at a concentration of 50 μM.
A culture chamber system with two compartments (Falcon, Becton Dickinson, France) was used. The upper compartment is separated from the lower compartment by a membrane with 8 μm porosity, on which 50 μg/cm^2 Matrigel was deposited. […] After 18 h incubation at 37° C., the number of living cells that passed through the Matrigel and that are located in the lower compartment is counted under a microscope (the LCs are easily identifiable by their dendritic form). […]

Setting [5] is: mice sensitised by FITC hapten, topical.

As a reminder, the inhibition is the share of the control response that was lost under treatment. Regarding `CCCCCCCCCCCC(=O)NC(C)(C)CO` [AK100], the “Migration inhibition in %” value in test [1] (AK100 0.05% topical on ears twice per day for 4 days) is listed as 15%; in test [2] (0.1% topical on ears twice per day for 4 days, FITC), 30%. The “Inhibition of migration of DCs to LGs” value in test [1] (setting [5]) and in test [2] (setting [5]) was “significantly inhibits” each time. Further, the “Inhibition of migration of dendritic cells activated by hapten BB” value in test [3] (1 μM) is reported as “significantly inhibits”. In addition, the “Percentage of dendritic cells generated in vitro that migrated” value is given as 8.4% in test [3] (Experiment 1, BB alone 17) and 18% in test [3] (Experiment 2, BB alone 24). Also, the inhibition at 1 µM is 51% in test [3] (Experiment 1, 1 μM) and 25% in test [3] (Experiment 2, 1 μM). Further, the “Inhibition of migration of LCs induced by DNSB” value in test [4] (1 μM) is “significantly inhibits”. Moreover, the LC migration index in test [4] (DNSB 50 μM + AK100 1 μM, 18 h, control cells set to 1, DNSB alone 2.55) is 1.11.

As to `CCCCCCCCCCCC1=NC(C)(C)CO1` [OX100, 2-undecyl-4,4-dimethyl-1,3-oxazoline], the “Migration inhibition in %” value in test [1] (OX100 0.05% topical on ears twice per day for 4 days) is 15%.
